Patent US20240425500A1 (priority 2021, published 2024)

Legend:
Pythium ultimum = Pythium ultimum / liquid culture (seedling damping off); format: cell-based; conditions: Globisporangium ultimum, liquid culture in PDB, 24 °C, 2-3 days after application, read-out: control of Pythium ultimum (inhibition of growth, photometric) compared to untreated control
Summary of the method: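 Mycelia fragments and oospores from fresh liquid culture mixed into potato dextrose broth and added to compound in DMSO. Incubated at 24° C.; growth inhibition read photometrically 2–3 days after application.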

Phytophthora infestans = experiment: whole plant or invertebrate; format: in vivo; conditions: in Solanum lycopersicum, foliar, read-out: control of Phytophthora infestans compared to untreated control
Plasmopara viticola = experiment: whole plant or invertebrate; format: in vivo; conditions: foliar, read-out: control of Plasmopara viticola compared to untreated control

COC(=O)Nc1ccc(-c2cnc3c(OC)cc(C(=O)N(C)c4ccc(F)cc4)cn23)cn1 [Compound 84, methyl N-[5-[6-[(4-fluorophenyl)-methyl-carbamoyl]-8-methoxy-imidazo[1,2-a]pyridin-3-yl]-2-pyridyl]carbamate]
≥ 80%: inhibition at 20 ppm (Pythium ultimum) | pest or weed control at 200 ppm (Phytophthora infestans) | pest or weed control at 200 ppm (Plasmopara viticola)

COC(=O)Nc1ccc(-c2cnc3c(Cl)cc(C(=O)N(C)c4ccc(F)cc4)cn23)cn1 [Compound 85, methyl N-[5-[8-chloro-6-[(4-fluorophenyl)-methyl-carbamoyl]imidazo[1,2-a]pyridin-3-yl]-2-pyridyl]carbamate]
≥ 80%: inhibition at 20 ppm (Pythium ultimum) | pest or weed control at 200 ppm (Phytophthora infestans) | pest or weed control at 200 ppm (Plasmopara viticola)

COC(=O)Nc1ccc(-c2cnc3cc(C)c(C(=O)N(C)c4ccc(F)cc4)cn23)cn1 [Compound 86, methyl N-[5-[6-[(4-fluorophenyl)-methyl-carbamoyl]-7-methyl-imidazo[1,2-a]pyridin-3-yl]-2-pyridyl]carbamate]
≥ 80%: inhibition at 20 ppm (Pythium ultimum) | pest or weed control at 200 ppm (Phytophthora infestans) | pest or weed control at 200 ppm (Plasmopara viticola)

COC(=O)Nc1ccc(-c2cnc3ccc(C(=O)N(CC#N)c4ccc(F)c(OC)c4)cn23)cn1 [Compound 89, methyl N-[5-[6-[cyanomethyl-(4-fluoro-3-methoxy-phenyl)carbamoyl]imidazo [1,2-a]pyridin-3-yl]-2-pyridyl]carbamate]
≥ 80%: inhibition at 20 ppm (Pythium ultimum) | pest or weed control at 200 ppm (Phytophthora infestans) | pest or weed control at 200 ppm (Plasmopara viticola)

COC(=O)Nc1ccc(-c2cnc3ccc(C(=O)N(CC#N)c4ccc(Cl)c(OC)c4)cn23)cn1 [Compound 90, methyl N-[5-[6-[(4-chloro-3-methoxy-phenyl)-(cyanomethyl)carbamoyl]imidazo[1,2-a]pyridin-3-yl]-2-pyridyl]carbamate]
≥ 80%: inhibition at 20 ppm (Pythium ultimum) | pest or weed control at 200 ppm (Phytophthora infestans) | pest or weed control at 200 ppm (Plasmopara viticola)

COCN(C(=O)c1ccc2ncc(-c3ccc(NC(=O)OC)nc3)n2c1)c1ccc(F)c(OC)c1 [Compound 93, methyl N-[5-[6-[(4-fluoro-3-methoxy-phenyl)-(methoxymethyl)carbamoyl]imidazo[1,2-a]pyridin-3-yl]-2-pyridyl]carbamate]
≥ 80%: inhibition at 20 ppm (Pythium ultimum) | pest or weed control at 200 ppm (Phytophthora infestans) | pest or weed control at 200 ppm (Plasmopara viticola)

COCN(C(=O)c1cc(C)c2ncc(-c3ccc(NC(=O)OC)nc3)n2c1)c1ccc(F)c(OC)c1 [Compound 94, methyl N-[5-[6-[(4-fluoro-3-methoxy-phenyl)-(methoxymethyl)carbamoyl]-8-methyl-imidazo[1,2-a]pyridin-3-yl]-2-pyridyl]carbamate]
≥ 80%: inhibition at 20 ppm (Pythium ultimum) | pest or weed control at 200 ppm (Phytophthora infestans) | pest or weed control at 200 ppm (Plasmopara viticola)

COC(=O)Nc1ccc(-c2cnc3c(C)cc(C(=O)N(C)c4ccc(F)c(OC)c4)cn23)cn1 [Compound 95, methyl N-[5-[6-[(4-fluoro-3-methoxy-phenyl)-methyl-carbamoyl]-8-methyl-imidazo[1,2-a]pyridin-3-yl]-2-pyridyl]carbamate]
≥ 80%: inhibition at 20 ppm (Pythium ultimum) | pest or weed control at 200 ppm (Phytophthora infestans) | pest or weed control at 200 ppm (Plasmopara viticola)

COC(=O)Nc1ccc(-c2cnc3ccc(C(=O)N(C)c4ccc(F)c(O)c4)cn23)cn1 [Compound 96, methyl N-[5-[6-[(4-fluoro-3-hydroxy-phenyl)-methyl-carbamoyl]imidazo[1,2-a]pyridin-3-yl]-2-pyridyl]carbamate]
≥ 80%: inhibition at 20 ppm (Pythium ultimum) | pest or weed control at 200 ppm (Phytophthora infestans) | pest or weed control at 200 ppm (Plasmopara viticola)

COC(=O)Nc1ccc(-c2cnc3c(Br)cc(C(=O)N(C)c4ccc(F)cc4)cn23)cn1 [Compound 98, methyl N-[5-[8-bromo-6-[(4-fluorophenyl)-methyl-carbamoyl]imidazo[1,2-a]pyridin-3-yl]-2-pyridyl]carbamate]
≥ 80%: inhibition at 20 ppm (Pythium ultimum) | pest or weed control at 200 ppm (Phytophthora infestans) | pest or weed control at 200 ppm (Plasmopara viticola)

COC(=O)Nc1ccc(-c2cnc3c(NC(C)=O)cc(C(=O)N(C)c4ccc(F)cc4)cn23)cn1 [Compound 100, methyl N-[5-[8-acetamido-6-[(4-fluorophenyl)-methyl-carbamoyl]imidazo[1,2-a]pyridin-3-yl]-2-pyridyl]carbamate]
≥ 80%: inhibition at 20 ppm (Pythium ultimum) | pest or weed control at 200 ppm (Phytophthora infestans) | pest or weed control at 200 ppm (Plasmopara viticola)

CCN(C(=O)c1ccc2ncc(-c3ccc(NC(=O)OC)nc3)n2c1)c1ccc(F)c(F)c1 [Compound 105, methyl N-[5-[6-[(3,4-difluorophenyl)-ethyl-carbamoyl]imidazo[1,2-a]pyridin-3-yl]-2-pyridyl]carbamate]
≥ 80%: inhibition at 20 ppm (Pythium ultimum) | pest or weed control at 200 ppm (Phytophthora infestans) | pest or weed control at 200 ppm (Plasmopara viticola)

COC(=O)Nc1ccc(-c2cnc3ccc(C(=O)N(C)c4ccc(C#N)c(Cl)c4)cn23)cn1 [Compound 107, methyl N-[5-[6-[(3-chloro-4-cyano-phenyl)-methyl-carbamoyl]imidazo[1,2-a]pyridin-3-yl]-2-pyridyl]carbamate]
≥ 80%: inhibition at 20 ppm (Pythium ultimum) | pest or weed control at 200 ppm (Phytophthora infestans) | pest or weed control at 200 ppm (Plasmopara viticola)

COC(=O)Nc1ccc(-c2cnc3ccc(C(=O)N(c4ccc(F)cc4)C4CC4)cn23)cn1 [Compound 110, methyl N-[5-[6-[cyclopropyl-(4-fluorophenyl)carbamoyl]imidazo [1,2-a]pyridin-3-yl]-2-pyridyl]carbamate]
≥ 80%: inhibition at 20 ppm (Pythium ultimum) | pest or weed control at 200 ppm (Phytophthora infestans) | pest or weed control at 200 ppm (Plasmopara viticola)

COC(=O)Nc1ccc(-c2cnc3ccc(C(=O)N(C)c4ccc(F)c(Cl)c4)cn23)cn1 [Compound 113, methyl N-[5-[6-[(3-chloro-4-fluoro-phenyl)-methyl-carbamoyl]imidazo[1,2-a]pyridin-3-yl]-2-pyridyl]carbamate]
≥ 80%: inhibition at 20 ppm (Pythium ultimum) | pest or weed control at 200 ppm (Phytophthora infestans) | pest or weed control at 200 ppm (Plasmopara viticola)

CCN(C(=O)c1ccc2ncc(-c3ccc(NC(=O)OC)nc3)n2c1)c1ccc(F)c(C)c1 [Compound 116, methyl N-[5-[6-[ethyl-(4-fluoro-3-methyl-phenyl)carbamoyl]imidazo [1,2-a]pyridin-3-yl]-2-pyridyl]carbamate]
≥ 80%: inhibition at 20 ppm (Pythium ultimum) | pest or weed control at 200 ppm (Phytophthora infestans) | pest or weed control at 200 ppm (Plasmopara viticola)

CCN(C(=O)c1ccc2ncc(-c3ccc(NC(=O)OC)nc3)n2c1)c1cccc(OC)c1 [Compound 124, methyl N-[5-[6-[ethyl-(3-methoxyphenyl)carbamoyl]imidazo[1,2-a]pyridin-3-yl]-2-pyridyl]carbamate]
≥ 80%: inhibition at 20 ppm (Pythium ultimum) | pest or weed control at 200 ppm (Phytophthora infestans) | pest or weed control at 200 ppm (Plasmopara viticola)

CCN(C(=O)c1ccc2ncc(-c3ccc(NC(=O)OC)nc3)n2c1)c1ccc(F)cc1 [Compound 136, methyl N-[5-[6-[ethyl-(4-fluorophenyl)carbamoyl]imidazo[1,2-a]pyridin-3-yl]-2-pyridyl]carbamate]
≥ 80%: inhibition at 20 ppm (Pythium ultimum) | pest or weed control at 200 ppm (Phytophthora infestans) | pest or weed control at 200 ppm (Plasmopara viticola)

COC(=O)Nc1ccc(-c2cnc3ccc(C(=O)N(CCC#N)c4cccc(OC)c4)cn23)cn1 [Compound 149, methyl N-[5-[6-[2-cyanoethyl-(3-methoxyphenyl)carbamoyl]imidazo[1,2-a]pyridin-3-yl]-2-pyridyl]carbamate]
≥ 80%: inhibition at 20 ppm (Pythium ultimum) | pest or weed control at 200 ppm (Phytophthora infestans) | pest or weed control at 200 ppm (Plasmopara viticola)

COC(=O)Nc1ccc(-c2cnc3ccc(C(=O)N(C)c4ccc(F)c(OC)c4)cn23)cc1 [Compound 158, methyl N-[4-[6-[(4-fluoro-3-methoxy-phenyl)-methyl-carbamoyl]imidazo[1,2-a]pyridin-3-yl]phenyl]carbamate]
≥ 80%: inhibition at 20 ppm (Pythium ultimum) | pest or weed control at 200 ppm (Phytophthora infestans) | pest or weed control at 200 ppm (Plasmopara viticola)

COC(=O)Nc1ccc(-c2cnc3ccc(C(=S)N(C)c4ccc(F)cc4)cn23)cn1 [Compound 164, methyl N-[5-[6-[(4-fluorophenyl)-methyl-carbamothioyl]imidazo[1,2-a]pyridin-3-yl]-2-pyridyl]carbamate]
≥ 80%: inhibition at 20 ppm (Pythium ultimum) | pest or weed control at 200 ppm (Phytophthora infestans) | pest or weed control at 200 ppm (Plasmopara viticola)

COC(=O)Nc1ccc(-c2cnc3c(NC(C)=O)cc(C(=O)N(C)c4ccc(F)c(OC)c4)cn23)cn1 [Compound 169, methyl N-[5-[8-acetamido-6-[(4-fluoro-3-methoxy-phenyl)-methyl-carbamoyl]imidazo[1,2-a]pyridin-3-yl]-2-pyridyl]carbamate]
≥ 80%: inhibition at 20 ppm (Pythium ultimum) | pest or weed control at 200 ppm (Phytophthora infestans) | pest or weed control at 200 ppm (Plasmopara viticola)

CCc1cc(C(=O)N(C)c2ccc(F)cc2)cn2c(-c3ccc(NC(=O)OC)nc3)cnc12 [Compound 170, methyl N-[5-[8-ethyl-6-[(4-fluorophenyl)-methyl-carbamoyl]imidazo[1,2-a]pyridin-3-yl]-2-pyridyl]carbamate]
≥ 80%: inhibition at 20 ppm (Pythium ultimum) | pest or weed control at 200 ppm (Phytophthora infestans) | pest or weed control at 200 ppm (Plasmopara viticola)

COC(=O)Nc1ccc(-c2cnc3c(C)cc(C(=O)N(C)c4ccc(F)c(Cl)c4)cn23)cn1 [Compound 171, methyl N-[5-[6-[(3-chloro-4-fluoro-phenyl)-methyl-carbamoyl]-8-methyl-imidazo[1,2-a]pyridin-3-yl]-2-pyridyl]carbamate]
≥ 80%: inhibition at 20 ppm (Pythium ultimum) | pest or weed control at 200 ppm (Phytophthora infestans) | pest or weed control at 200 ppm (Plasmopara viticola)

COCc1cc(C(=O)N(C)c2ccc(F)cc2)cn2c(-c3ccc(NC(=O)OC)nc3)cnc12 [Compound 172, methyl N-[5-[6-[(4-fluorophenyl)-methyl-carbamoyl]-8-(methoxymethyl)imidazo[1,2-a]pyridin-3-yl]-2-pyridyl]carbamate]
≥ 80%: inhibition at 20 ppm (Pythium ultimum) | pest or weed control at 200 ppm (Phytophthora infestans) | pest or weed control at 200 ppm (Plasmopara viticola)

COCCN(C(=O)c1ccc2ncc(-c3ccc(NC(=O)OC)nc3)n2c1)c1ccc(F)c(OC)c1 [Compound 173, methyl N-[5-[6-[(4-fluoro-3-methoxy-phenyl)-(2-methoxyethyl)carbamoyl]imidazo[1,2-a]pyridin-3-yl]-2-pyridyl]carbamate]
≥ 80%: inhibition at 20 ppm (Pythium ultimum) | pest or weed control at 200 ppm (Phytophthora infestans) | pest or weed control at 200 ppm (Plasmopara viticola)
